Test results taken from US12083227B2, “Solid pharmaceutical formulations for treating endometriosis, uterine fibroids, polycystic ovary syndrome or adenomyosis” (priority 2017, dated 2024).

Experiments:
[1] = lactation study in rats (elagolix in diet through gestation and lactation); assay type: in vivo, rat; details: dams 400 mg/kg daily in diet
Method: Pregnant rats were given diet containing elagolix throughout the gestation and lactation periods to achieve a daily elagolix dose of 400 mg/kg. During nursing the dams and litters were divided into restricted feeding and non-restricted groups to determine whether elagolix was secreted in the mother's milk. […] In pups of the non-restricted feeding group, elagolix plasma concentrations were measurable and approximately 1% of the mother's plasma concentrations.

[2] = test system: reproductive organs of monkeys; assay: repeat-dose study in monkeys; assay type: in vivo, monkey; details: repeat-dose, 75, 150, 300 and 600 mg/kg/day, all doses
Excerpt: Based on pharmacologic actions of elagolix in humans a reversible effect on fertility may be expected in women.

[3] = test system: women with endometriosis; assay: Phase 3 studies EM-I and EM-II with extension studies EM-III and EM-IV (pooled efficacy, pharmacodynamics, safety); assay type: in vivo, human; details: for Depressed Mood, depression, depressive symptoms and or tearfulness: Placebo 17 (2.3); for Mood altered, mood swings: Placebo 25 (3.4); for Completed Suicide: EM-1 and EM-2; for patients with a Z-score below the normal lower bound of −2.0: following 12 months of treatment
Excerpt: Each placebo-controlled study assessed the reduction in endometriosis-associated pain over 6 months of treatment. More than 75 percent of women who completed Study EM-I and EM-II enrolled in the extension studies for an additional 6 month treatment period. Subjects were followed for up to 12 months post-treatment. Women in these studies also provided a daily self-assessment of their endometriosis pain using the Numeric Rating Scale (NRS), on a scale ranging from 0 (no pain) to 10 (worst pain ever). […] The effects of elagolix on menstrual bleeding were evaluated for up to 12 months using an electronic daily diary where subjects classified their flow of menstrual bleeding (if present in the last 24 hours) as spotting, light, medium, or heavy. […] The population age range was 18-49 years old. Women who completed six months of treatment and met eligibility criteria continued treatment in two blinded six-month extension studies, for a total treatment duration of up to 12 months. In the placebo-controlled and extension clinical studies, BMD was measured by DXA. Changes observed in BMD at other anatomical sites (femoral neck, total hip) were generally smaller than lumbar spine.

[4] = acid dissociation constants by potentiometric titration; assay type: physicochemical
Method: The acid dissociation constants were determined by potentiometric titration method. […] The first is XH2+, where the carboxylic acid is not ionized but the secondary amine is; the molecule has an overall +1 charge, and the main species at pHs below 4.0. The second is XH, where both the carboxylic acid and the tertiary amine are ionized. […] The third is X−, where the carboxylic acid is ionized but the tertiary amine is not.

[5] = test system: tumors in rat; assay: 2-year carcinogenicity study in rats; assay type: in vivo
Excerpt: The rat tumors were identified as being species-specific and of negligible relevance to humans. This conclusion is based on a follow-on thyroid and hepatic effects-related investigative study performed to document the possibility that thyroid and liver tumors may be specific to rat and occurred via induction of hepatic drug metabolizing enzymes at the high dose.

[6] = test system: ovulation and endometrial thickness in healthy women; assay: 3-menstrual cycle study in healthy women; assay type: in vivo, human; details: transvaginal ultrasound, 150 mg QD and 200 mg BID
[7] = test system: fatigue in women with moderate to severe endometriosis-related pain; assay: Phase III study of fatigue (PROMIS Fatigue SF-6a) in endometriosis pain; assay type: in vivo, human
Method: A Phase III study was conducted to assess the effects of elagolix for clinically meaningful reductions in pain and other symptoms. Data provided examined the impact of elagolix on fatigue in women with moderate to severe endometriosis-related pain. […] Fatigue was assessed using the Patient Reported Outcome Measurement Information System (PROMIS®), Fatigue Short Form (SF) 6a. Six items assessed a range of self-reported symptoms from mild, subjective feelings of tiredness to overwhelming, sustained sense of exhaustion that likely decreases one's ability to execute daily activities and function normally. The domain was divided into the experience of fatigue (frequency, duration and intensity) and impact of fatigue on physical, mental and social activities. All items assessed fatigue over the previous seven days. Responses to each question was filed on a 5-item Likert scale: 1—“Not at all”; 2—“A little bit”; 3—“Somewhat”; 4—“Quite a bit”; and 5—“Very much.” The questionnaire was administered at baseline and months 1, 3, and 6. Lower scores indicated less fatigue. Post-hoc, Fatigue SF-6a raw scores were converted to T-scores. The T-score rescales […] the raw score into a standardized score such that the general population has a mean of 50 and a standard deviation (SD) of 10. Analysis: […] ANCOVA controlled for treatment as main effect. Baseline Fatigue SF-6a T-score included as a covariate.

[8] = test system: endometriosis with associated pain in premenopausal women; assay: Study EM-I (placebo-controlled) and its extension; assay type: in vivo, human; details: Month 6 and Month 12
Excerpt: Each placebo-controlled study assessed the reduction in endometriosis-associated pain over 6 months of treatment. More than 75 percent of women who completed Study EM-I and EM-II enrolled in the extension studies for an additional 6 month treatment period. Subjects were followed for up to 12 months post-treatment. The co-primary efficacy endpoints were the proportion of responders for dysmenorrhea and pelvic pain not related to menses (also known as non-menstrual pelvic pain [NMPP]) at Month 3 compared to placebo. The primary analysis independently evaluated these endpoints using a daily diary that asked patients to assess their pain and its impact on their daily activities, over the previous 24 hours. […] Women were defined as responders if they experienced clinically meaningful reduction in dysmenorrhea and/or NMPP with no increased analgesic use for endometriosis associated pain. Dyspareunia was evaluated as a secondary endpoint using the Daily Endometriosis Pain Impact Scale. Endometrial biopsies were performed in subjects in Study EM-I and its extension at Month 6 and Month 12.

[9] = pharmacokinetics in specific populations (renal and hepatic impairment); assay type: in vivo, human
Excerpt: The mean exposures are similar for women with moderate to severe or end stage renal disease (including women on dialysis) compared to women with normal renal function.
Elagolix exposures (Cmax and AUC) are similar between women with normal hepatic function and women with mild hepatic impairment. Elagolix exposures in women with moderate and severe hepatic impairment are approximately 3-fold and 7-fold, respectively, of exposures from women with normal hepatic function.

COc1cccc(-c2c(C)n(Cc3c(F)cccc3C(F)(F)F)c(=O)n(C[C@H](NCCCC(=O)O)c3ccccc3)c2=O)c1F [elagolix, 4-((R)-2-[5-(2-fluoro-3-methoxy-phenyl)-3-(2-fluoro-6-trifluoromethyl-benzyl)-4-methyl-2,6-dioxo-3,6-dihydro-2H-pyrimidin-1-yl]-1-phenyl-ethylamino)-butyric acid]
plasma concentrations in pups relative to the mother's plasma concentrations ([1]; rat pups of non-restricted feeding group): approximately 1% | plasma concentrations in pups ([1]; rat pups of restricted feeding litters, post natal day 10 and 20): not measurable | reproductive organ findings (cervix, uterus and vagina) [2]: reversible atrophy of reproductive organs | Suicidal ideation ([3]; 150 mg Once Daily (N = 475)): 1 (0.2) N (%) | Depressed Mood, depression, depressive symptoms and or tearfulness ([3]; 150 mg Once Daily (N = 475)): 13 (2.7) N (%) | Mood altered, mood swings ([3]; 150 mg Once Daily (N = 475)): 25 (5.7) N (%) | Numeric Rating Scale (NRS) scores of endometriosis pain ([3]; 150 mg QD and 200 mg BID vs placebo at Month 3 and Month 6, p<0.001): significant reduction | percentage of days per month of the opioid or naproxen rescue medication use ([3]; 200 mg BID compared to placebo): significant reduction | Suicidal ideation ([3]; 200 mg Twice Daily (N = 477)): 1 (0.2) N (%) | Depressed Mood, depression, depressive symptoms and or tearfulness ([3]; 200 mg Twice Daily (N = 477)): 29 (6.1) N (%) | Mood altered, mood swings ([3]; 200 mg Twice Daily (N = 477)): 25 (5.2) N (%) | Completed Suicide ([3]; 150 mg Once Daily (N = 475)): 1 (0.2) N (%) | Completed Suicide ([3]; 200 mg Twice Daily (N = 477)): 0 N (%) | resumption of menses after stopping, % of women ([3]; after 6 months of 150 mg once daily, within 1 month): 59% | resumption of menses after stopping, % of women ([3]; after 6 months of 150 mg once daily, within 2 months): 87% | resumption of menses after stopping, % of women ([3]; after 6 months of 150 mg once daily, within 6 months): 95% | resumption of menses after stopping, % of women ([3]; after 6 months of 200 mg twice daily, within 1 month): 60% | resumption of menses after stopping, % of women ([3]; after 6 months of 200 mg twice daily, within 2 months): 88% | resumption of menses after stopping, % of women ([3]; after 6 months of 200 mg twice daily, within 6 months): 97% | resumption of menses after stopping, % of women ([3]; after 12 months of 150 mg once daily, within 1 month): 77% | resumption of menses after stopping, % of women ([3]; after 12 months of 150 mg once daily, within 2 months): 95% | resumption of menses after stopping, % of women ([3]; after 12 months of 150 mg once daily, within 6 months): 98% | resumption of menses after stopping, % of women ([3]; after 12 months of 200 mg twice daily, within 1 month): 55% | resumption of menses after stopping, % of women ([3]; after 12 months of 200 mg twice daily, within 2 months): 91% | resumption of menses after stopping, % of women ([3]; after 12 months of 200 mg twice daily, within 6 months): 96% | recovery of BMD at lumbar spine, total hip and femoral neck ([3]; both treatment groups, post-treatment months 6 and 12): progressive recovery of BMD | patients with a Z-score below the normal lower bound of −2.0 ([3]; 150 mg daily dose): no patient | patients with a Z-score below the normal lower bound of −2.0 ([3]; 200 mg BID): less than 1% | percentage of days in which rescue opioid medication was taken ([3]; pooled analysis of two phase 3 trials, 150 QD and 200 BID vs placebo): significant reduction | mean percent daily pill counts (rescue opioid) ([3]; pooled analysis, 200 mg BID vs placebo): significant reduction | pKa (B) ([4]; amine): 7.9 | pKa (A) ([4]; carboxylic acid): 4.0 | carcinogenicity: tumors ([5]; 2-year, high dose, considered species-specific): increase in thyroid (male and female) and liver (males only) tumors | margin of safety at the high dose ([5]; both, in vivo, 2 years): 13 fold | mean endometrial thickness compared to the pretreatment values [6]: dose dependent decrease | reduction in fatigue (PROMIS Fatigue SF-6a T-Score) ([7]; 200 mg, as early as Month 1): statistically significant reduction | PROMIS Fatigue SF-6a T-Score relative to placebo ([7]; both doses (150 mg QD, 200 mg BID) at Months 3 and 6): Statistically significant reductions | endometrial biopsy findings post-baseline (hyperplasia or cancer) [8]: no abnormal biopsy findings | exposures in moderate hepatic impairment relative to normal hepatic function ([9]; moderate hepatic impairment): approximately 3 fold | exposures (Cmax and AUC) in renal impairment ([9]; moderate to severe or end stage renal disease vs normal renal function): not altered | exposures in severe hepatic impairment relative to normal hepatic function [9]: approximately 7 fold | exposures in severe hepatic impairment relative to normal hepatic function ([9]; listed as Elagolix): ~7 fold | exposures (Cmax and AUC) in mild hepatic impairment ([9]; vs women with normal hepatic function): similar
